Test results: EP0557876A1, “Use of xanthine derivatives for the treatment of muscle damage subsequent to complete interruption of blood circulation” (HOECHST AKTIENGESELLSCHAFT, priority 1992, dated 1993)
Marks after values point to notes of the source that are not given here.

Tested on: Muskelfasern
Assay: Muscle fibre diameter after 3 h tourniquet interruption of blood circulation in a hind limb and subsequent reperfusion
Assay type: in vivo, Cercopithecus pygerythrus
Set-up: durchschnittliche Durchmesser Muskelfaser Typ1 / durchschnittliche Durchmesser Muskelfaser Typ2a: unit not given here
Description: Zwei Gruppen von acht erwachsenen, männlichen südafrikanischen Meerkatzen (Cercopithecus pygerythrus) werden untersucht. Die Anasthäsie der Tiere erfolgt intramuskulär mit 15 mg/kg Ketamin (Warner Lambert) und wird intravenös mit Thiopenton Natrium (25 mg/kg, May und Baker) aufrecht erhalten. Eine hintere Extremität wird durch eine pneumatische Abschnürbinde und eine Esmarch Bandage blutleer gemacht. Die Unterbrechung der Blutzirklation wird drei Stunden aufrechterhalten, dann wird die Unterbrechung beendet und die Tiere können aus der Betäubung aufwachen. Die Entnahme der Muskelgewebeproben erfolgt unter Betäubung (15 mg/kg Ketamin).
20 mg/kg Verbindung 1 wird intravenös über 30 Minuten den Tieren appliziert bevor die Unterbrechung der Blutzirkulation erfolgt.
Das entnommene Muskelgewebe wird sofort in Isopentan bei -183° C eingefroren. Die Präparation des Muskelgewebes erfolgt wie bei Dubowitz (Dubowitz et al. Muscle Biopsy A practical Approach, London, Bailliere Tindall, 1985, S. 82 - 128) beschrieben. Mikroskopische Schnitte werden mit Muskelfaser-ATPase für 30 Minuten bei pH 9,4 gefärbt, eingebettet und im Lichtmikroskop untersucht. Die Durchmesser von wenigstens 200 Muskelfasern werden mit einem computerisierten Video-Image-Analysator ausgewertet.
Der durchschnittliche Durchmesser jedes Muskelfasertyps wird in Tabelle 1 beschrieben.

[1] = Unterbrechung der Blutzirkulation, lower part of Tabelle 1 (12/18/24 h series), 20 mg/kg i.v.
[2] = Unterbrechung der Blutzirkulation, upper part of Tabelle 1 (3/6 h series), 20 mg/kg i.v.
[3] = Vor Unterbrechung der Blutzirkulation, lower part of Tabelle 1 (12/18/24 h series), 20 mg/kg i.v. over 30 min before interruption
[4] = Vor Unterbrechung der Blutzirkulation, upper part of Tabelle 1 (3/6 h series), 20 mg/kg i.v. over 30 min before interruption

CCOCn1cnc2c1c(=O)n(CCCCC(C)(C)O)c(=O)n2C [Verbindung 1, 7-Ethoxymethyl-1-(5-hydroxy-5-methylhexyl)-3-methylxanthin]
durchschnittliche Durchmesser Muskelfaser Typ1 (Nach 3 Stunden, 20 mg/kg i.v.): 39,89* | durchschnittliche Durchmesser Muskelfaser Typ2a (Nach 3 Stunden, 20 mg/kg i.v.): 48,55* | durchschnittliche Durchmesser Muskelfaser Typ1 (Nach 6 Stunden, 20 mg/kg i.v.): 43,42* | durchschnittliche Durchmesser Muskelfaser Typ2a (Nach 6 Stunden, 20 mg/kg i.v.): 53,37* | durchschnittliche Durchmesser Muskelfaser Typ1 (Nach 12 Stunden, 20 mg/kg i.v.): 35,79 | durchschnittliche Durchmesser Muskelfaser Typ2a (Nach 12 Stunden, 20 mg/kg i.v.): 42,28* | durchschnittliche Durchmesser Muskelfaser Typ1 (Nach 18 Stunden, 20 mg/kg i.v.): 34,68 | durchschnittliche Durchmesser Muskelfaser Typ2a (Nach 18 Stunden, 20 mg/kg i.v.): 41,31 | durchschnittliche Durchmesser Muskelfaser Typ1 (Nach 24 Stunden, 20 mg/kg i.v.): 33,00 | durchschnittliche Durchmesser Muskelfaser Typ2a (Nach 24 Stunden, 20 mg/kg i.v.): 40,24 | durchschnittliche Durchmesser Muskelfaser Typ1 [1]: 33,21 | durchschnittliche Durchmesser Muskelfaser Typ2a [1]: 38,69 | durchschnittliche Durchmesser Muskelfaser Typ1 [2]: 36,28 | durchschnittliche Durchmesser Muskelfaser Typ2a [2]: 44,75 | durchschnittliche Durchmesser Muskelfaser Typ1 [3]: 36,50 | durchschnittliche Durchmesser Muskelfaser Typ2a [3]: 45,09 | durchschnittliche Durchmesser Muskelfaser Typ1 [4]: 36,50 | durchschnittliche Durchmesser Muskelfaser Typ2a [4]: 45,09 | Schwellung der Muskelfasern vom Typ 1 und 2a (nach 18 - 24 Stunden Wiederdurchblutung, 20 mg/kg i.v.): signifikant verringerte Schwellung
